Patent US8580814B2, “Methods of using (+)-1,4-dihydro-7-[(3S,4S)-3-methoxy-4-(methylamino)-1-pyrrolidinyl]-4- oxo-1-(2-thiazolyl)-1,8-naphthyridine-3-carboxylic acid for treatment of cancer” (priority 2006, dated 2013)
Values after ≈ are worked out from the molar mass of the structure shown. Marks after values point to notes of the source that are not given here.

How the values were obtained:
[1] = Safety (adverse events, hematologic effects, DLT, MTD) in patients with advanced solid tumors; assay type: in vivo
Protocol: SNS-595 was administered to patients with advanced solid cancers as an IV infusion over 10 minutes on 2 schedules. In the first schedule (A), a weekly dose of SNS-595 was administered for three weeks followed by at least 7 days off (qwk×3). In the second schedule (B), a dose of SNS-595 was administered once every three weeks (q3wk).
In both schedules, the starting dose of SNS-595 was 3 mg/m^2, and doses were escalated by sequential cohorts of 3. The doses were doubled until the first related adverse event at or above Grade 2 or until the first abnormal lab value. The doses were then escalated by a modified Fibonacci schema.
In the description herein, the term “maximum tolerated dose” or “MTD” refers to the dose level below a dose of SNS-595 where ≧2 of 6 patients experienced dose limiting toxicity (DLT). The term, “heavily pretreated” or “HP” patient refers to a patient who has previously received >6 courses of an alkylating agent, chemotherapy or >2 courses of platinum, mitomycin-C or any nitrosourea, or XRT to >25% of bone. […] (See, Tolcher et al, JCO 2001; 19:2937-2947).
As used herein, dose limiting toxicity (DLT) refers to absolute neutrophil count (ANC) ≦500 for ≧7 days or febrile neutropenia or platelet nadir <25000 or bleeding or non-hematologic adverse events (AE) ≧Grade 3 (as described in Common Terminology Criteria for Adverse Events Version 3.0 (CTCAE v3.0)), wherein adverse events required >14 days dose delay.

[2] = test system: CCRF-CEM (lymphoblastic leukemia); assay: MTT cell viability assay, leukemia cells; assay type: cell-based; conditions: Homo sapiens, MTT after 72 hours
Protocol: (§1) The following cell lines were used in this assay: HL-60 (promyelocytic leukemia); Jurkat (T cell leukemia); CCRF-CEM (lymphoblastic leukemia); CEM/C2 (camptothecan resistant derivative of CCRF-CEM). Cells were seeded in 96 wells plates at 3000 cells per well and incubated for 16 hours. […] Titrations were diluted 1:100 in media to achieve final compound concentrations. The 96 well plates were aspirated and compound dilutions in media were added ([…]). MTT analysis was carried out after 72 hours of incubation at 37° C. Briefly, […] of MTT solution was added to each well. Cells were incubated at 37° C. for 1-2 hours. […] Plates were read on a spectromax machine with an absorbance measurement at […]. IC50's were calculated (data provided in Table 13) using regression analysis within GraphPad Prism.

[3] = test system: HL-60 (promyelocytic leukemia); assay: MTT cell viability assay, leukemia cells; assay type: cell-based; conditions: Homo sapiens; HL-60, MTT after 72 hours
Protocol: as §1

Jurkat (T cell leukemia) = assay: MTT cell viability assay, leukemia cells; assay type: cell-based; conditions: Homo sapiens, MTT after 72 hours
Protocol: as §1

[4] = test system: CEM/C2 (camptothecan resistant derivative of CCRF-CEM); assay: MTT cell viability assay, leukemia cells; assay type: cell-based; conditions: Homo sapiens; CEM/C2, MTT after 72 hours
Protocol: as §1

[5] = design: species or system female CD-1 mice; conditions: mouse, in vivo
Protocol: Female CD-1 mice were administered 5, 10, 15, or 20 mg/kg SNS-595 intravenously on Day 0 and Day 4. Blood was drawn on days 6, 8, and 12 post initial injection for hematological analysis. Femurs were extracted on day 6 fixed in Streck and H&E stained prior to bone marrow cellularity analysis. […] At 20 mg/kg, cellularity was reduced to 7.5%, while circulating neutrophils were reduced from a pre-dose level of […] to a nadir of 51±24 cells/mL blood on day 8.

[6] = test system: SKOV3 ovarian cancer cell line with or without p53 expression; assay: Combination studies, MTT assay, Combination Index; assay type: cell-based; conditions: SNS-595 dosed simultaneously with a selection of DNA damaging agents and antimetabolites
Protocol: (§2) Cell lines and Cell Culture: HCT116 and NCI-H460 cell lines were obtained from ATCC. SKOV3(p53−/−) and SKOV3(p53+/+) were obtained from the lab of Dr. George Stark of the Lerner Institute of the Cleveland Clinic. All cell lines were cultured in RPMI media supplemented with 10% FBS 1% Sodium Bicarbonate solution and 1% Antibiotic Solution (Cellgro).
(§3) MTT assay: Cells were plated at 4000 cells per well (except SKOV3 (p53−/−) which were plated at 8000 cells per well) in a 96 well plate, incubated for 24 hours and then treated with compound. Compound treatment lasted 72 hours. Cells were then incubated with 5% MTT for 1-2 hours, and lysed. MTT was colorimetrically read at 570 nm. The fraction of dead cells was determined by the following formula: Fraction of Dead cells=1−[Abs of sample well−Avg(Abs of no cell control)]/[Avg(Abs of DMSO only control)−Avg(abs of no cell control)]
(§4) Statistical Analysis: The data (Fraction of Dead cells) was analyzed using Calculsyn.V2 (Biosoft) and is herein represented as the value of the Combination Index at Fraction affected (Fa)=0.5. All data is shown with error bars indicating the 95% confidence intervals of the mean value.
(§5) A combination is said to be additive if it yields a Combination Index of 0.85-1.2. […]

[7] = test system: H460 lung cancer cell line; assay: Combination studies, MTT assay, Combination Index; assay type: cell-based; conditions: SNS-595 dosed simultaneously with various cytotoxics, H460, Fa=0.5
Protocol: as §2, §3, §4, §5

## CN[C@H]1CN(c2ccc3c(=O)c(C(=O)O)cn(-c4nccs4)c3n2)C[C@@H]1OC [SNS-595, (+)-1,4-dihydro-7-[(3S,4S)-3-methoxy-4-(methylamino)-1-pyrrolidinyl]-4-oxo-1-(2-thiazolyl)-1,8-naphthyridine-3-carboxylic acid]
[1]; human, in vivo
  dose limiting toxicity (DLT): neutropenia
  dose-limiting toxicity (DLT): neutropenia
  edema peripheral, no. patients with Grade ≧ 3/no. patients with any Grade: 0/4*
  grade 4 thrombocytopenia: two patients
  non-hematologic toxicities: mostly grade 1/2
  pain in extremity, no. patients with Grade ≧ 3/no. patients with any Grade: 0/5
[1]; q3wk, 1 patient
  SAE possibly related to study drug: Sepsis, CTCAE v3.0 Grade: Grade 3
[1]; study A (qwk×3)
  MTD: 15 mg/m^2
[1]; study B (q3wk), heavily pretreated (HP) patients
  MTD: 48 mg/m^2
[1]; study B (q3wk), minimally pretreated (MP) patients
  MTD: 60 mg/m^2
[2]
  IC50: 0.018 µg/mL (≈ 0.0448 µM)
[3]
  IC50: 0.053 µg/mL (≈ 0.132 µM)
Jurkat (T cell leukemia)
  IC50: 0.023 µg/mL (≈ 0.0573 µM)
[4]
  IC50: 0.01 µg/mL (≈ 0.0249 µM)
[5]
  peripheral neutrophils: significant decrease
  platelet response: minor platelet response
[5]; iv
  Total WBCs: reached a nadir on day 8, but returned to normal levels
[6]
  change in the combination index between SKOV3 with or without p53 expression: no significant change
[7]
  combination indices: significantly synergistic or at least additive
